Source: patent publication EP4729522A1, “CRYSTAL FORMS OF SODIUM SALT OF POLYCYCLIC CARBAMOYLPYRIDONE DERIVATIVE, AND PREPARATION METHOD THEREFOR AND USE THEREOF” (Jiangsu Aidea Pharmaceutical Group Co., Ltd., priority 2023, dated 2024)
“Also recorded” adds a separate entry of the source. Structures can show the parent of a compound that is named as a salt.

Key:
Assay type in all cases: physicochemical
[1] = Hygroscopicity by Dynamic Vapor Sorption (DVS)
Protocol: [table] […] The sample, after DVS testing, was then analyzed by XRPD. Table 8 DVS test results of sodium salts

[2] = Influencing factors stability test (high temperature, high humidity, lighting; XRPD, HPLC, appearance); conditions: for Purity: HPLC
Protocol: The petri dishes were then transferred into constant temperature and humidity chambers under three different conditions: high temperature (60 °C, sealed), high relative humidity (RH: 90 ± 5%, 25 °C, open), and lighting (5000 ± 500 Lux, open). The samples were tested on Day 5 and Day 10.

[3] = High pressure property test (XRPD after pressing); conditions: pressed at 10 MPa for 5 minutes, 13 mm die
[4] = Simulated granulation test (ethanol wetting and grinding, XRPD); conditions: wetted with ethanol, then ground
Protocol: The resulting solid and the sample without the addition of wetting ethanol were analyzed by XRPD, respectively.

[5] = Day 5, High humidity (RH 90 ± 5%, 25 °C, open)
[6] = Day 5, High temperature (60 °C, sealed)
[7] = Day 5, Lighting (5000 ± 500 Lux, open)
[8] = Day 10, High humidity (RH 90 ± 5%, 25 °C, open)
[9] = Day 10, High temperature (60 °C, sealed)
[10] = Day 10, Lighting (5000 ± 500 Lux, open)

- weight gain at 80% relative humidity (RH) ([1]; DVS, 80% RH, 25°C): 0.69%
- Adsorption ([1]; Relative humidity 0%, adsorption (cycle 1 of 2), 25°C): 0.0000%
- Adsorption ([1]; Relative humidity 0%, adsorption (cycle 2 of 2), 25°C): -0.0471%
- Desorption ([1]; Relative humidity 0%, desorption (cycle 2 of 2), 25°C): -0.0614%
- Desorption ([1]; Relative humidity 0%, first desorption (cycle 1 of 2), 25°C): -0.0471%
- Adsorption ([1]; Relative humidity 10%, adsorption (cycle 1 of 2), 25°C): 0.0668%
- Adsorption ([1]; Relative humidity 10%, adsorption (cycle 2 of 2), 25°C): 0.0230%
- Desorption ([1]; Relative humidity 10%, desorption (cycle 2 of 2), 25°C): 0.0147%
- Desorption ([1]; Relative humidity 10%, first desorption (cycle 1 of 2), 25°C): 0.0285%
- Adsorption ([1]; Relative humidity 20%, adsorption (cycle 1 of 2), 25°C): 0.1197%
- Adsorption ([1]; Relative humidity 20%, adsorption (cycle 2 of 2), 25°C): 0.0818%
- Desorption ([1]; Relative humidity 20%, desorption (cycle 2 of 2), 25°C): 0.0758%
- Desorption ([1]; Relative humidity 20%, first desorption (cycle 1 of 2), 25°C): 0.0891%
- Adsorption ([1]; Relative humidity 30%, adsorption (cycle 1 of 2), 25°C): 0.1725%
- Adsorption ([1]; Relative humidity 30%, adsorption (cycle 2 of 2), 25°C): 0.1394%
- Desorption ([1]; Relative humidity 30%, desorption (cycle 2 of 2), 25°C): 0.1373%
- Desorption ([1]; Relative humidity 30%, first desorption (cycle 1 of 2), 25°C): 0.1498%
- Adsorption ([1]; Relative humidity 40%, adsorption (cycle 1 of 2), 25°C): 0.2282%
- Adsorption ([1]; Relative humidity 40%, adsorption (cycle 2 of 2), 25°C): 0.2001%
- Desorption ([1]; Relative humidity 40%, desorption (cycle 2 of 2), 25°C): 0.2149%
- Desorption ([1]; Relative humidity 40%, first desorption (cycle 1 of 2), 25°C): 0.2239%
- Adsorption ([1]; Relative humidity 50%, adsorption (cycle 1 of 2), 25°C): 0.2857%
- Adsorption ([1]; Relative humidity 50%, adsorption (cycle 2 of 2), 25°C): 0.2641%
- Desorption ([1]; Relative humidity 50%, desorption (cycle 2 of 2), 25°C): 0.3200%
- Desorption ([1]; Relative humidity 50%, first desorption (cycle 1 of 2), 25°C): 0.3320%
- Adsorption ([1]; Relative humidity 60%, adsorption (cycle 1 of 2), 25°C): 0.3539%
- Adsorption ([1]; Relative humidity 60%, adsorption (cycle 2 of 2), 25°C): 0.3365%
- Desorption ([1]; Relative humidity 60%, desorption (cycle 2 of 2), 25°C): 0.5185%
- Desorption ([1]; Relative humidity 60%, first desorption (cycle 1 of 2), 25°C): 0.5250%
- Adsorption ([1]; Relative humidity 70%, adsorption (cycle 1 of 2), 25°C): 0.5505%
- Adsorption ([1]; Relative humidity 70%, adsorption (cycle 2 of 2), 25°C): 0.5627%
- Desorption ([1]; Relative humidity 70%, desorption (cycle 2 of 2), 25°C): 0.6037%
- Desorption ([1]; Relative humidity 70%, first desorption (cycle 1 of 2), 25°C): 0.6126%
- Adsorption ([1]; Relative humidity 80%, adsorption (cycle 1 of 2), 25°C): 0.6895%
- Adsorption ([1]; Relative humidity 80%, adsorption (cycle 2 of 2), 25°C): 0.6928%
- Desorption ([1]; Relative humidity 80%, desorption (cycle 2 of 2), 25°C): 0.7082%
- Desorption ([1]; Relative humidity 80%, first desorption (cycle 1 of 2), 25°C): 0.7176%
- Adsorption ([1]; Relative humidity 90%, adsorption (cycle 1 of 2), 25°C): 0.9012%
- Adsorption ([1]; Relative humidity 90%, adsorption (cycle 2 of 2), 25°C): 0.8889%
- Desorption ([1]; Relative humidity 90%, desorption (cycle 2 of 2), 25°C): 0.8889%
- Desorption ([1]; Relative humidity 90%, first desorption (cycle 1 of 2), 25°C): 0.9012%
- Property ([2]; Day 0): off-white solid
- XRPD ([2]; Day 0): Crystal Form A
- Purity ([2]; Day 0): 99.57%
- Property [2, 5]: off-white solid
- XRPD [2, 5]: Crystal Form A
- Purity [2, 5]: 99.64%
- Property [2, 6]: off-white solid
- XRPD [2, 6]: Crystal Form A
- Purity [2, 6]: 99.69%
- Property [2, 7]: off-white solid
- XRPD [2, 7]: Crystal Form A
- Purity [2, 7]: 99.68%
- Property [2, 8]: off-white solid
- XRPD [2, 8]: Crystal Form A
- Purity [2, 8]: 99.72%
- Property [2, 9]: off-white solid
- XRPD [2, 9]: Crystal Form A
- Purity [2, 9]: 99.72%
- Property [2, 10]: off-white solid
- XRPD [2, 10]: Crystal Form A
- Purity [2, 10]: 99.72%
- crystal form after the high-pressure test (XRPD) [3]: did not change
- change in crystal form after ethanol wetting and grinding (XRPD) [4]: did not exhibit a change in crystal form
Structure (SMILES): C[C@H]1N2C(=O)c3c(O)c(=O)c(C(=O)NCc4ccc(F)cc4F)cn3C[C@@H]2OCC12CC2 [Sodium salt crystal form A]
- After DVS testing Crystal form change ([1]; XRPD after DVS testing): did not change; also recorded: Crystal form A, unchanged
